Data published in patent publication US12156938B2, “Liposomes for targeting tumor-associated macrophages” (Universiteit Twente, priority 2018, dated 2024).

Columns and labels:
RAW 264.7 macrophages = assay: Effect of MTP-PE on differentiated RAW 264.7 macrophages (qPCR); assay type: cell-based, murine
Protocol: (§1) Macrophages were differentiated as reported in [7]. Briefly, THP-1 cells were treated for 24 hours with 100 ng/ml of phorbol 12-myristate 13-acetate (PMA, Cayman Chemicals) to allow their attachment. The medium was replaced by medium containing 20 ng/ml IL-4 and IL-13 (Peprotech, London, UK) for M2 differentiation, or 20 ng/ml IFNγ (Peprotech) and 100 ng/ml LPS (Sigma Aldrich) for M1 differentiation. Cells were incubated with cytokines for 24 hours (gene expression on differentiation), and 72 hours (liposome uptake experiments). BMDMs were plated overnight with a density of 50,000 cells/ml. After 24 hours, medium was aspirated. Cells were incubated for 24 hours in complete RPMI medium containing IL-4 and IL-13 at 10 ng/ml (M2 differentiation) or LPS and IFN-γ at 100 and 10 ng/ml. In case of RAW264.7 cells, M1 macrophages were differentiated using 10 ng-mL murine recombinant IFNγ and 10 ng-mL LPS. M2 macrophages were differentiated using 10 ng-mL murine IL-4 and IL-13.
(§2) 0.5×10^6 RAW264.7/THP-1 cells were plated in 12-well plates, if applicable treated with respective cytokines for differentiation, and activated using PMA. Cells were then incubated with different liposomal preparations (50 μM) or differentiation cytokines for 24 hours. BMDM were differentiated as described above. After differentiation, cells were washed with PBS and then lysed using lysis buffer and total RNA was isolated using SV Total RNA Isolation System (Promega, Madison, WI). cDNA was prepared by using iScript cDNA synthesis kit (Bio-Rad, Hercules, CA) and qRT-PCR was performed with 10 ng of cDNA per reaction mixture using SYBR green assay (Bioline, London, UK). Reactions were measured using the CFX384 Real-Time PCR detection system (Bio-Rad). The threshold cycles (Ct) values were calculated and relative gene expression (ddCt method) was analyzed after normalization using the Rsp18 (THP-1) or Gapdh (RAW264.7/BMDM) house-keeping gene.
To study the effect of MTP-PE, murine macrophages RAW 264.7 were first differentiated with IFNγ and LPS for M1 and with IL-4 and IL-13 for M2 macrophages (TAM). […]

THP-1 macrophages [1] = assay: Cell growth after 24-hour treatment of MTP-PE and IFNγ; assay type: cell-based, human; conditions: IFNγ 20 ng/ml
Protocol: FIG. 12. In vitro effects of MTP-PE and IFNγ in differentiated THP-1 macrophages. qPCR analysis of macrophage differentiation with MTP-PE with or without IFNγ for M1 markers IL-1β, IL-6, TNFα and M2 markers for DC-SIGN. […] B) The cell growth was evaluated after 24-hour treatment of MTP-PE and IFNγ C) MTP-PE, in synergy with IFNγ activates tumoricidal properties by inducing more M1 markers. Bars represent mean+SEM, n=3 *p<0.05, **p<0.005, ***p<0.001.
(§3) (IL-1β and TNFα) in TAMs, which indicates the switch of M2 macrophages toward M1 phenotype (FIG. 12A). In the second experiment, IFNγ, a well-known inducer of M1 macrophage differentiation, was tested (Sica et al. 2012 J. Clin. Invest. 122, 787-795, doi:10.1172/JCI59643), and MTP-PE to understand the role of IFNγ potentiation effect on macrophage reprogramming.

THP-1 macrophages [2] = assay: Effect of MTP-PE and IFNγ on differentiated THP-1 macrophages (qPCR); assay type: cell-based, human; conditions: for DC-SIGN (M2 marker) expression in TAMs: second experiment, with or without IFNγ
Protocol: as §1, §2
Next, the effect of MTP-PE on differentiated human macrophages THP-1 was investigated.
as §3

4T1 breast tumor model [3] = assay: Effect of AS-loaded liposomes on pre-metastatic niche in liver and lungs (qPCR); assay type: in vivo, mice; conditions: compared to the vehicle group
Protocol: (§4) For efficacy analysis of AS1517499-loaded liposomes, 1×10^5 Luc-cells were injected into the mammary fat pad, and tumors were allowed to develop to a size of 100 mm^3. Thereupon, treatment with AS1517499-loaded liposomes (8 mg/kg, intravenous administrations, twice a week) was started. Before sacrifice, mice were injected with 2.5 mg of D-Luciferin (Perkin-Elmer, Waltham, MA) and were imaged after 15 minutes to detect bioluminescence signal using a Pearl Trilogy imager (LICOR).
TAMs display a number of pro-tumoral functions, including extracellular matrix remodeling, neoangiogenesis, suppression of adaptive immunity and facilitate tumor metastasis (Allavena et al. 2012 Exp. Immunol. 167, 195-205, doi:10.1111/j.1365-2249.2011.04515.x). […] As most of cancer related mortalities occur due to metastasis, the effect of AS-loaded liposomes on the pre-metastatic niche in the organs (liver and lungs) of the 4T1 breast tumor was examined using qPCR analysis (FIG. 9).

[4] = system: 4T1 orthotopic tumor model; conditions: free AS1517499, 20 mg/kg; i.p route; cited from earlier work
4T1 breast tumor model [5] = assay: Efficacy of AS1517499-loaded liposomes on tumor growth in the 4T1 breast tumor model; assay type: in vivo, mice; conditions: 8 mg/kg, intravenous route, twice weekly
Protocol: as §4
Mouse 4T1-Luc cells were injected orthotopic into the mammary fat pad of BalbC mice. The mice were randomly assigned into five groups: a) treated with PBS as the vehicle group, b) treated with free AS, c) treated with AS-HSPC liposomes, d) treated with AS-PAzPC liposomes, e) treated with empty PAzPC liposomes. […] Since the loading of the AS1517499 was little in the liposomes, 8 mg/kg was injected, intravenous route, twice weekly.

[6] = increasing concentrations of MTP-PE

Molecule	Cytokines (IL-1β, IL-6, TNFα) expression in M1 differentiation (RAW 264.7 macrophages; MTP-PE dose-dependent conc., in presence of IFNγ)	M2 macrophage markers (MRC-1, ARG-1) in M2 macrophages (RAW 264.7 macrophages; [6])	TNFα expression in M2-type macrophages (RAW 264.7 macrophages; [6])	Cell growth (THP-1 macrophages [1])	DC-SIGN gene expression (M2 differentiation) (THP-1 macrophages [2]; 1 and 10 ug/ml, first experiment)	M1 type differentiation markers in presence of M1 cytokines (THP-1 macrophages [2]; data not shown)	M1 cytokine markers (IL-1β and TNFα) in TAMs (THP-1 macrophages [2]; first experiment)	DC-SIGN (M2 marker) expression in TAMs (THP-1 macrophages [2])	CD31, collagen I, periostin, fibronectin expression in liver samples (4T1 breast tumor model [3])	Premetastatic niche in liver [4]	Tumor volume compared to the vehicle group [4]	Tumor volume/weight compared to the vehicle group (4T1 breast tumor model [5])
muramyl tripeptide-phosphatidyl ethanolamine [MTP-PE]	increasing the cytokines (IL-1β, IL-6, TNFα) expression	did not show any inhibition	increased TNFα expression	no direct effect on the cell growth	reduced expression of DC-SIGN gene	increased the M1 type differentiation markers	induced M1 cytokine markers	reduced the expression of DC-SIGN				
NC(=O)c1cnc(NCCc2ccc(O)c(Cl)c2)nc1NCc1ccccc1 [AS1517499]									no statistically significant difference	reduced premetastatic niche in liver	inhibited tumor volume significantly	no difference in tumor volume/weight
IFNγ: cytokine that activates inflammatory M1-type macrophages (protein, UniProt P01579 24-161, looked up) Interferon gamma: QDPYVKEAENLKKYFNAGHSDVADNGTLFLGILKNWKEESDRKIMQSQIVSFYFKLFKNFKDDQSIQKSVETIKEDMNVKFFNSNKKKRDDFEKLTNYSVTDLNVQRKAIHELIQVMAELSPAAKTGKRKRSQMLFRG				reduced the cell growth significantly				increased expression of DC-SIGN				
